{"source": "patent US20050124575A1", "about": "“Remedies” (Takara Bio Inc., priority 2002, published 2005)", "system": "mouse", "assay": "Acute toxicity after oral or intraperitoneal administration", "type": "in vivo", "conditions": "orally or intraperitoneally administered to a mouse at 1 g/kg"}
{"substance": "agarose", "values": [{"measurement": "acute toxicity", "result": "No acute toxicity"}]}
